Assay results from ChEMBL document CHEMBL3885881, “DrugMatrix”.

Species: Rattus norvegicus
Assay: DrugMatrix - Regimen: Daily Repeat
Format: toxicity, organism-based, Sprague-Dawley
Set-up: regimen Daily Repeat, gender Male, age 6-8 weeks
Settings: in vivo, po, route oral GAVAGE, […]; for ABSOLUTE BASOPHIL / ABSOLUTE EOSINOPHIL / ABSOLUTE LYMPHOCYTE / ABSOLUTE MONOCYTE / ABSOLUTE SEGMENTED NEUTROPHIL / BASOPHIL / EOSINOPHIL / ERYTHROCYTE COUNT / HEMATOCRIT / HEMOGLOBIN / LEUKOCYTE COUNT / LYMPHOCYTE / MEAN CORPUSCULAR HEMOGLOBIN / MEAN CORPUSCULAR HEMOGLOBIN CONCENTRATION / MEAN CORPUSCULAR VOLUME / MONOCYTE / NEUTROPHIL / NUCLEATED RED BLOOD CELLS / PLATELET COUNT: tissue Blood; for ALANINE AMINOTRANSFERASE / ALBUMIN / ALKALINE PHOSPHATASE / ASPARTATE AMINOTRANSFERASE / BLOOD UREA NITROGEN / CARBON DIOXIDE / CHLORIDE / CHOLESTEROL / CREATINE PHOSPHOKINASE / CREATININE / GLUCOSE / LACTATE DEHYDROGENASE / LIPASE / PHOSPHORUS / POTASSIUM / SODIUM / TOTAL BILIRUBIN / TOTAL PROTEIN / URIC ACID: tissue Plasma
[1] = 11 mg/kg, 120 h, dose level High, time 5 day
[2] = 72 h, dose 0.26 mg/Kg, dose level Low, time 3 day
[3] = 120 h, dose 0.26 mg/Kg, dose level Low, time 5 day

C[C@H]1O[C@@H](O[C@H]2[C@@H](O)C[C@H](O[C@H]3[C@@H](O)C[C@H](O[C@H]4CC[C@@]5(C)[C@H](CC[C@@H]6[C@@H]5C[C@@H](O)[C@]5(C)[C@@H](C7=CC(=O)OC7)CC[C@]65O)C4)O[C@@H]3C)O[C@@H]2C)C[C@H](O)[C@@H]1O [DIGOXIN]
ABSOLUTE BASOPHIL [1]: 0 CELLS/uL
ABSOLUTE EOSINOPHIL [1]: 21.33 CELLS/uL
ABSOLUTE LYMPHOCYTE [1]: 5911 CELLS/uL
ABSOLUTE MONOCYTE [1]: 0 CELLS/uL
ABSOLUTE SEGMENTED NEUTROPHIL [1]: 367.67 CELLS/uL
BASOPHIL [1]: 0%
EOSINOPHIL [1]: 0.33%
ERYTHROCYTE COUNT [1]: 6.17 x10E6/uL
HEMATOCRIT [1]: 38.03%
HEMOGLOBIN [1]: 15.03 G/DL
LEUKOCYTE COUNT [1]: 6.3 x10E3/uL
LYMPHOCYTE [1]: 94.33%
MEAN CORPUSCULAR HEMOGLOBIN [1]: 24.37 pg
MEAN CORPUSCULAR HEMOGLOBIN CONCENTRATION [1]: 39.53 G/DL
MEAN CORPUSCULAR VOLUME [1]: 61.63 fL
MONOCYTE [1]: 0%
NEUTROPHIL [1]: 5.33%
NUCLEATED RED BLOOD CELLS [1]: 0 /100WBC
PLATELET COUNT [1]: 1098 x10E3/uL
ALANINE AMINOTRANSFERASE [1]: 90 u/L
ALBUMIN [1]: 4.37 G/DL
ALKALINE PHOSPHATASE [1]: 342 u/L
ASPARTATE AMINOTRANSFERASE [1]: 79.67 u/L
BLOOD UREA NITROGEN [1]: 9.33 mg/dL
CARBON DIOXIDE [1]: 32.67 mmol/L
CHLORIDE [1]: 95 MEQ/L
CHOLESTEROL [1]: 90.67 mg/dL
CREATINE PHOSPHOKINASE [1]: 208.33 u/L
CREATININE [1]: 0.11 mg/dL
GLUCOSE [1]: 175.67 mg/dL
LACTATE DEHYDROGENASE [1]: 92 u/L
LIPASE [1]: 9.33 u/L
PHOSPHORUS [1]: 9.27 mg/dL
POTASSIUM [1]: 4.94 MEQ/L
SODIUM [1]: 141.5 MEQ/L
TOTAL BILIRUBIN [1]: 0.17 mg/dL
TOTAL PROTEIN [1]: 6.23 G/DL
URIC ACID [1]: 0.5 mg/dL
ABSOLUTE BASOPHIL [2]: 0 CELLS/uL
ABSOLUTE EOSINOPHIL [2]: 80.67 CELLS/uL
ABSOLUTE LYMPHOCYTE [2]: 8480.33 CELLS/uL
ABSOLUTE MONOCYTE [2]: 0 CELLS/uL
ABSOLUTE SEGMENTED NEUTROPHIL [2]: 705.67 CELLS/uL
BASOPHIL [2]: 0%
EOSINOPHIL [2]: 0.67%
ERYTHROCYTE COUNT [2]: 5.56 x10E6/uL
HEMATOCRIT [2]: 34.27%
HEMOGLOBIN [2]: 13.27 G/DL
LEUKOCYTE COUNT [2]: 9.27 x10E3/uL
LYMPHOCYTE [2]: 91.67%
MEAN CORPUSCULAR HEMOGLOBIN [2]: 23.83 pg
MEAN CORPUSCULAR HEMOGLOBIN CONCENTRATION [2]: 38.73 G/DL
MEAN CORPUSCULAR VOLUME [2]: 61.63 fL
MONOCYTE [2]: 0%
NEUTROPHIL [2]: 7.67%
NUCLEATED RED BLOOD CELLS [2]: 0 /100WBC
PLATELET COUNT [2]: 1014 x10E3/uL
ALANINE AMINOTRANSFERASE [2]: 79.33 u/L
ALBUMIN [2]: 3.97 G/DL
ALKALINE PHOSPHATASE [2]: 406.67 u/L
ASPARTATE AMINOTRANSFERASE [2]: 82.67 u/L
BLOOD UREA NITROGEN [2]: 14.67 mg/dL
CARBON DIOXIDE [2]: 34 mmol/L
CHLORIDE [2]: 101.33 MEQ/L
CHOLESTEROL [2]: 79.33 mg/dL
CREATINE PHOSPHOKINASE [2]: 157.33 u/L
CREATININE [2]: 0.12 mg/dL
GLUCOSE [2]: 161 mg/dL
LACTATE DEHYDROGENASE [2]: 84 u/L
LIPASE [2]: 10 u/L
PHOSPHORUS [2]: 9.57 mg/dL
POTASSIUM [2]: 6.36 MEQ/L
SODIUM [2]: 146.27 MEQ/L
TOTAL BILIRUBIN [2]: 0.27 mg/dL
TOTAL PROTEIN [2]: 5.63 G/DL
URIC ACID [2]: 1.2 mg/dL
ABSOLUTE BASOPHIL [3]: 0 CELLS/uL
ABSOLUTE EOSINOPHIL [3]: 0 CELLS/uL
ABSOLUTE LYMPHOCYTE [3]: 13719.67 CELLS/uL
ABSOLUTE MONOCYTE [3]: 0 CELLS/uL
ABSOLUTE SEGMENTED NEUTROPHIL [3]: 1313.67 CELLS/uL
BASOPHIL [3]: 0%
EOSINOPHIL [3]: 0%
ERYTHROCYTE COUNT [3]: 5.8 x10E6/uL
HEMATOCRIT [3]: 35.03%
HEMOGLOBIN [3]: 13.67 G/DL
LEUKOCYTE COUNT [3]: 15.03 x10E3/uL
LYMPHOCYTE [3]: 90.33%
MEAN CORPUSCULAR HEMOGLOBIN [3]: 23.57 pg
MEAN CORPUSCULAR HEMOGLOBIN CONCENTRATION [3]: 39.03 G/DL
MEAN CORPUSCULAR VOLUME [3]: 60.4 fL
MONOCYTE [3]: 0%
NEUTROPHIL [3]: 9.67%
NUCLEATED RED BLOOD CELLS [3]: 0 /100WBC
PLATELET COUNT [3]: 1074 x10E3/uL
ALANINE AMINOTRANSFERASE [3]: 64.67 u/L
ALBUMIN [3]: 4.03 G/DL
ALKALINE PHOSPHATASE [3]: 401.33 u/L
ASPARTATE AMINOTRANSFERASE [3]: 82.67 u/L
BLOOD UREA NITROGEN [3]: 15.33 mg/dL
CARBON DIOXIDE [3]: 31.67 mmol/L
CHLORIDE [3]: 100.33 MEQ/L
CHOLESTEROL [3]: 58.67 mg/dL
CREATINE PHOSPHOKINASE [3]: 259 u/L
CREATININE [3]: 0.14 mg/dL
GLUCOSE [3]: 148.33 mg/dL
LACTATE DEHYDROGENASE [3]: 110 u/L
LIPASE [3]: 9.33 u/L
PHOSPHORUS [3]: 9.93 mg/dL
POTASSIUM [3]: 5.45 MEQ/L
SODIUM [3]: 144.47 MEQ/L
TOTAL BILIRUBIN [3]: 0.2 mg/dL
TOTAL PROTEIN [3]: 5.73 G/DL
URIC ACID [3]: 0.7 mg/dL
